Reference: the NIST ThermoML archive (doi:10.1021/je0496950)
Several values for one entry are separate records, joined by “and”; a condition that tells them apart may be missing. Equal entries are not always repeated.

Tests used:
[1] = 101 kPa, Liquid
[2] = mn = molality of the nth substance listed, in mol/kg; details: 101 kPa, Liquid; for speed of sound: Pulse-echo method

CC#N [acetonitrile]
[1]
Details | mass density
288.13 K | 787.307 kg/m3 and 787.308 kg/m3 and 787.312 kg/m3
288.15 K | 787.308 kg/m3
293.15 K | 781.933 kg/m3 [middle of 4 runs]
298.15 K | 776.532 kg/m3 [middle of 4 runs]
303.15 K | 771.106 kg/m3 [middle of 4 runs]
308.15 K | 765.645 kg/m3 and 765.664 kg/m3 and 765.649 kg/m3
313.15 K | 760.158 kg/m3 [middle of 4 runs]
323.15 K | 749.07 kg/m3 [middle of 4 runs]

[Mn+2].[O-][Cl+3]([O-])([O-])[O-].[O-][Cl+3]([O-])([O-])[O-] [manganese (II) perchlorate] + CC#N
[2]
Details | mass density, 288.15 K [kg/m3] | mass density, 293.15 K [kg/m3] | mass density, 298.15 K [kg/m3] | mass density, 303.15 K [kg/m3] | mass density, 308.15 K [kg/m3] | mass density, 313.15 K [kg/m3] | mass density, 323.15 K [kg/m3] | speed of sound, 298.15 K [m/s]
m1 = 0.07666 | – | – | – | – | – | – | – | 1282.8
m1 = 0.08738 | – | – | – | – | – | – | – | 1283.5
m1 = 0.1308 | 812.076 | 806.744 | 801.389 | 796.009 | 790.599 | 785.164 | 774.198 | 1286
m1 = 0.1732 | 820.267 | 814.947 | 809.604 | 804.238 | 798.846 | 793.424 | 782.485 | 1288.4
m1 = 0.216 | 828.628 | 823.32 | 817.989 | 812.633 | 807.252 | 801.843 | 790.933 | 1290.8
m1 = 0.257 | 836.778 | 831.471 | 826.148 | 820.803 | 815.431 | 810.032 | 799.145 | 1293
m1 = 0.298 | 845.062 | 839.769 | 834.455 | 829.123 | 823.764 | 818.379 | 807.522 | 1295.3
m1 = 0.3364 | 852.972 | 847.683 | 842.377 | 837.051 | 831.7 | 826.326 | 815.497 | 1297.9
m1 = 0.3745 | 860.854 | 855.574 | 850.277 | 844.96 | 839.624 | 834.26 | 823.454 | 1300.3
m1 = 0.4122 | 868.75 | 863.479 | 858.191 | 852.884 | 847.554 | 842.203 | 831.418 | 1302.7

[Ni+2].[O-][Cl+3]([O-])([O-])[O-].[O-][Cl+3]([O-])([O-])[O-] [nickel perchlorate] + CC#N
[2]
Details | mass density, 288.13 K [kg/m3] | mass density, 293.15 K [kg/m3] | mass density, 298.15 K [kg/m3] | mass density, 303.15 K [kg/m3] | mass density, 308.15 K [kg/m3] | mass density, 313.15 K [kg/m3] | mass density, 323.15 K [kg/m3] | speed of sound, 298.15 K [m/s]
m1 = 0.0492 | 797.088 | 791.73 | 786.35 | 780.945 | 775.512 | 770.049 | 759.023 | –
m1 = 0.04923 | – | – | – | – | – | – | – | 1281.8
m1 = 0.08198 | – | – | – | – | – | – | – | 1284
m1 = 0.082 | 803.621 | 798.268 | 792.896 | 787.511 | 782.087 | 776.641 | 765.646 | –
m1 = 0.1087 | 809.018 | 803.673 | 798.312 | 792.927 | 787.516 | 782.077 | 771.11 | 1285.8
m1 = 0.135 | 814.36 | 809.021 | 803.671 | 798.291 | 792.889 | 787.46 | 776.511 | 1287.5
m1 = 0.1611 | 819.735 | 814.406 | 809.058 | 803.686 | 798.299 | 792.88 | 781.957 | 1289.4
m1 = 0.1844 | 824.54 | 819.217 | 813.878 | 808.519 | 803.134 | 797.731 | 786.838 | 1290.9
m1 = 0.2114 | 830.147 | 824.83 | 819.495 | 814.141 | 808.766 | 803.366 | 792.486 | 1292.7
m1 = 0.2353 | 835.248 | 829.938 | 824.608 | 819.261 | 813.893 | 808.502 | 797.637 | 1294.1
m1 = 0.2607 | 840.618 | 835.309 | 829.987 | 824.647 | 819.287 | 813.905 | 803.067 | 1295.8

[O-][Cl+3]([O-])([O-])[O-].[O-][Cl+3]([O-])([O-])[O-].[Zn+2] [zinc perchlorate] + CC#N
[2]
Details | mass density, 288.13 K [kg/m3] | mass density, 293.15 K [kg/m3] | mass density, 298.15 K [kg/m3] | mass density, 303.15 K [kg/m3] | mass density, 308.15 K [kg/m3] | mass density, 313.15 K [kg/m3] | mass density, 323.15 K [kg/m3] | speed of sound, 298.15 K [m/s]
m1 = 0.05169 | 797.728 | 792.369 | 786.992 | 781.587 | 776.154 | 770.69 | 759.656 | 1280.2
m1 = 0.09336 | 806.167 | 800.821 | 795.456 | 790.063 | 784.645 | 779.192 | 768.19 | 1281.9
m1 = 0.1233 | 812.307 | 806.971 | 801.611 | 796.227 | 790.815 | 785.374 | 774.39 | 1283.1
m1 = 0.1524 | 818.329 | 812.997 | 807.644 | 802.268 | 796.864 | 791.433 | 780.466 | 1284.2
m1 = 0.1817 | 824.45 | 819.125 | 813.78 | 808.412 | 803.019 | 797.595 | 786.657 | 1285.4
m1 = 0.2106 | 830.536 | 825.218 | 819.877 | 814.514 | 809.128 | 803.712 | 792.788 | 1286.8
m1 = 0.2379 | 836.415 | 831.101 | 825.768 | 820.412 | 815.033 | 809.624 | 798.715 | 1287.9
m1 = 0.2668 | 842.682 | 837.373 | 832.046 | 826.696 | 821.325 | 815.925 | 805.037 | 1289
m1 = 0.2944 | 848.641 | 843.338 | 838.017 | 832.675 | 827.308 | 821.916 | 811.045 | 1290.3
